# Measured values from ChEMBL document CHEMBL3991601, “The target landscape of clinical kinase drugs” (Science, 2017).
# Activity calls are given as the source filed them. On the calls: in the data inactive means no Kd found up to 30 µM.
# How the values were obtained:
# UMP-CMP kinase = target: T1, UMP-CMP kinase (Homo sapiens, UniProt P30085)
# T1 sequence (P30085 whole entry): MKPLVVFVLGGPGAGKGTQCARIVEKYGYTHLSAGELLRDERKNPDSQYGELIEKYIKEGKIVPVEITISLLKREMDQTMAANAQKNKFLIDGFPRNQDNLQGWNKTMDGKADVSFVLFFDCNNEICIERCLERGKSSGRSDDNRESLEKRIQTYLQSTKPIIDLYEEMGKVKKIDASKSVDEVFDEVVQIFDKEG
# [1] = target: T2, Eukaryotic translation initiation factor 5B (Homo sapiens, UniProt O60841)
# T2 sequence (O60841 whole entry): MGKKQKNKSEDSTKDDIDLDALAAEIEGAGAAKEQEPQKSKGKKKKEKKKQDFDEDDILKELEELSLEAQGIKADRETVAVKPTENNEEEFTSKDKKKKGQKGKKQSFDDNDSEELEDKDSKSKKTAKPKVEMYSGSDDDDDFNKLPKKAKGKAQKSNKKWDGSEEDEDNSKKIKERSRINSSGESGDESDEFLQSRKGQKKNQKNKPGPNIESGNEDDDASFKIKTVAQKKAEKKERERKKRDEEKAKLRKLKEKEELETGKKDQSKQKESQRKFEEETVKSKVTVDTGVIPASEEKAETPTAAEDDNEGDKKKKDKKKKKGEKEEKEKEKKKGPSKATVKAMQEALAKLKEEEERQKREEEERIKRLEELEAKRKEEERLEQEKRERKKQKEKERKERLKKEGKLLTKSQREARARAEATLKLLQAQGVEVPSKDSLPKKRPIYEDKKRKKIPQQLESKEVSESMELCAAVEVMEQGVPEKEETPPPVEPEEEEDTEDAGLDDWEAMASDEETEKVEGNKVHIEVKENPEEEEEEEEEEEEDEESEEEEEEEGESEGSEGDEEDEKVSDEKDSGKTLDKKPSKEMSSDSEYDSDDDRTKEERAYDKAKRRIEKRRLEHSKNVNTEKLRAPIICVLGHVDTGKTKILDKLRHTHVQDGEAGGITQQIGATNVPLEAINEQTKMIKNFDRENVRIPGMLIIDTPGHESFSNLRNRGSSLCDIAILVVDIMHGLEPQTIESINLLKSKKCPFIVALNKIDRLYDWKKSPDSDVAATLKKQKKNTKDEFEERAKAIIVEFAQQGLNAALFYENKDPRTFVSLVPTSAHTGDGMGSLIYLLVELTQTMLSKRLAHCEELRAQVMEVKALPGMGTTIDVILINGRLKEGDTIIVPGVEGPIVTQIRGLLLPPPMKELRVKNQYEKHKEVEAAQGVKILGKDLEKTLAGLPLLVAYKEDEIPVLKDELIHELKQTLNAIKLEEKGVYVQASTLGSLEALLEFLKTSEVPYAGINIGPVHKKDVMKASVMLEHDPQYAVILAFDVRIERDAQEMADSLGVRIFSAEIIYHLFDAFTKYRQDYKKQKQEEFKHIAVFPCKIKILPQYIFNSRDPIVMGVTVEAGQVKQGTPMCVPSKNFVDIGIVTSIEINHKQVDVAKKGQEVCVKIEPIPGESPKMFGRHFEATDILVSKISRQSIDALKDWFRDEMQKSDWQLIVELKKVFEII
# Myosin-10 = Myosin-10 (Homo sapiens, UniProt P35580)
# [2] = target: Dual specificity testis-specific protein kinase 2 (Homo sapiens, UniProt Q96S53)
# [3] = target: T3, Isoleucine--tRNA ligase, mitochondrial (Homo sapiens, UniProt Q9NSE4)
# T3 sequence (Q9NSE4 whole entry): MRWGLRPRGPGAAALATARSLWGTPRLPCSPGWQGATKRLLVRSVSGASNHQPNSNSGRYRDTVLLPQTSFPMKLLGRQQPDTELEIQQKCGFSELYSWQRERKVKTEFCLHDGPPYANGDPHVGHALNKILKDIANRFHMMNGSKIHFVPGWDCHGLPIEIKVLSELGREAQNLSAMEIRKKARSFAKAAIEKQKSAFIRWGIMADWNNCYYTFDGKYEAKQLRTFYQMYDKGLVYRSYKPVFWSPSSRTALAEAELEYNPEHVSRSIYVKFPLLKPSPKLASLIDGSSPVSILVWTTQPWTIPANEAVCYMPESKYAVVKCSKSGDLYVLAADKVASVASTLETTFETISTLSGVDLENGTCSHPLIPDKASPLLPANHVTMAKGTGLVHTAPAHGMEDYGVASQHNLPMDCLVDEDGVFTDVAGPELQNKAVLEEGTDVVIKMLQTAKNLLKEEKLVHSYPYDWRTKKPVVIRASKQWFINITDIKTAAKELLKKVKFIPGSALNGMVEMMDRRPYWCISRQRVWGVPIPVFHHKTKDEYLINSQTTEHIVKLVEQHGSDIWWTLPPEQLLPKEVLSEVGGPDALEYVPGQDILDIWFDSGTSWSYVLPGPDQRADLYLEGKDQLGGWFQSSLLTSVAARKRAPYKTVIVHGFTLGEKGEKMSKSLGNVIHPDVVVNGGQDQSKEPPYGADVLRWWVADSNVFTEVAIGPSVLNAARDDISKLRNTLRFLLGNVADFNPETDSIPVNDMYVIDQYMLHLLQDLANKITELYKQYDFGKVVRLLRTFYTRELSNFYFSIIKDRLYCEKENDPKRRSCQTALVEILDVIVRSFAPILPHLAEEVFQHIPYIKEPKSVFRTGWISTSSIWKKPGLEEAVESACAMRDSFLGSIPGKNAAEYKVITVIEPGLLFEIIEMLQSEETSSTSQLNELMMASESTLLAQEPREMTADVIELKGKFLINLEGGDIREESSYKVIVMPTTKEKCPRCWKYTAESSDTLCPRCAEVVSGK
# Chain of Myosin-10 (P35580 whole entry): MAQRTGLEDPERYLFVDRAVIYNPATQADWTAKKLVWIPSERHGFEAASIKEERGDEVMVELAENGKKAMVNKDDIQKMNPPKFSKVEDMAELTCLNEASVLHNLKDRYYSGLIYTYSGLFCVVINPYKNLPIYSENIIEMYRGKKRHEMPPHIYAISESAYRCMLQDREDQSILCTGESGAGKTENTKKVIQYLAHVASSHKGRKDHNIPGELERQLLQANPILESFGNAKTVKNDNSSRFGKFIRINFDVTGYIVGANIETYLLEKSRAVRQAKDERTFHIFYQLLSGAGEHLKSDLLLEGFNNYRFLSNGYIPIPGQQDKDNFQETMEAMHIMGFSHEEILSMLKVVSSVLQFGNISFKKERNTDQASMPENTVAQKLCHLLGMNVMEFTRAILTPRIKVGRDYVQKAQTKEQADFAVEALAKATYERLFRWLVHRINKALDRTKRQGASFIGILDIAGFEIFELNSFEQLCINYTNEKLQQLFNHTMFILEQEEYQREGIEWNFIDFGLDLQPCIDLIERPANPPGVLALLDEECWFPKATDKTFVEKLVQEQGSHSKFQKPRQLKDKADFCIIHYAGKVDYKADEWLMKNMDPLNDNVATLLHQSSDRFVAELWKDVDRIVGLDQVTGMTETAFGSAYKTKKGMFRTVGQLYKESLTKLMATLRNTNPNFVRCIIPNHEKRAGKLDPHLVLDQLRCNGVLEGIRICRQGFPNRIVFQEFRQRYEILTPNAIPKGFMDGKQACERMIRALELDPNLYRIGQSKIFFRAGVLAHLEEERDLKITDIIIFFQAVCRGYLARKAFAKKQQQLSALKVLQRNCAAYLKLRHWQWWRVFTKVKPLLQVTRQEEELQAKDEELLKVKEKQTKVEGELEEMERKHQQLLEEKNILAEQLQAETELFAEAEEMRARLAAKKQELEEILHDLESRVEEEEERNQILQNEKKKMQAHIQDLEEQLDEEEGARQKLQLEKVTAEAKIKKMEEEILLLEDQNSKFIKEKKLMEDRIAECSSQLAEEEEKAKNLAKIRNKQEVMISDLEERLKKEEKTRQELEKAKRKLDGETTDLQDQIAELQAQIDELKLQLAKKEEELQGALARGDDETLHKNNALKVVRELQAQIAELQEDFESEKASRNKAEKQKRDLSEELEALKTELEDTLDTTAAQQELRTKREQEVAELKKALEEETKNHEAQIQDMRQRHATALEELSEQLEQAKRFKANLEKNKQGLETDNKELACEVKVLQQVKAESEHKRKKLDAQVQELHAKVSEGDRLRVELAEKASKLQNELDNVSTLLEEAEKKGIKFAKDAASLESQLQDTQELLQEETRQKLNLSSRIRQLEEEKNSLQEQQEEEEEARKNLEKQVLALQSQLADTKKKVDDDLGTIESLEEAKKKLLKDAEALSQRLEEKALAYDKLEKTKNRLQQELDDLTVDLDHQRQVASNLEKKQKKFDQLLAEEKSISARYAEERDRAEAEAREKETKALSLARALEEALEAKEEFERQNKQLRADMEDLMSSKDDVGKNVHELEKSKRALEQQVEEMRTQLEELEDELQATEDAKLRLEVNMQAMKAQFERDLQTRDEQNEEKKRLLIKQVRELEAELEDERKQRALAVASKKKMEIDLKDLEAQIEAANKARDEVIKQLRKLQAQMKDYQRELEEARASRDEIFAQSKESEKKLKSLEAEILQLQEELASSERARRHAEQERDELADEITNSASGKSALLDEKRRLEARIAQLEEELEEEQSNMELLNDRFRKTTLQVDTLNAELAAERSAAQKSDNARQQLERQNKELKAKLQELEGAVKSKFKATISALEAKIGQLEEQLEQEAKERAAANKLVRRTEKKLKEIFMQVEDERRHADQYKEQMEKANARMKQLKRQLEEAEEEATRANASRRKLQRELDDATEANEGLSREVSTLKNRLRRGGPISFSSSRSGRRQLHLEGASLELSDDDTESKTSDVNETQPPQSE
# Chain of Dual specificity testis-specific protein kinase 2 (Q96S53 whole entry): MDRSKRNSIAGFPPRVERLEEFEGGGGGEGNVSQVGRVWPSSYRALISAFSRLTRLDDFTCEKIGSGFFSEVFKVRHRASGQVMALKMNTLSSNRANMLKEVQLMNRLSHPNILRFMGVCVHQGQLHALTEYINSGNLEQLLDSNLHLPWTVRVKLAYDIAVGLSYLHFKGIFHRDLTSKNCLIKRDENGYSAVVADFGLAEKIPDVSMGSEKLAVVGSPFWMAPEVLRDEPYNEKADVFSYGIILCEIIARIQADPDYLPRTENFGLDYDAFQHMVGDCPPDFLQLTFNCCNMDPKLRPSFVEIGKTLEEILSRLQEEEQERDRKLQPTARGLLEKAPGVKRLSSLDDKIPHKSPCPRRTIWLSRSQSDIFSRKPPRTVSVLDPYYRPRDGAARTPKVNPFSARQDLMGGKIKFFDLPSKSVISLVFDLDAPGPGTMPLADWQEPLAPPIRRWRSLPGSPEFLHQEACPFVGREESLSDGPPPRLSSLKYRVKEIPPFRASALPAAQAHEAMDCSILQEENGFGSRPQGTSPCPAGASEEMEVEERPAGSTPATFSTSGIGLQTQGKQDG
Kd (UMP-CMP kinase),Kd [1],Kd (Myosin-10),Kd [2],Kd [3],Compound
> 30 µM (inactive),> 30 µM (inactive),> 30 µM (inactive),> 30 µM (inactive),–,Cc1cc([C@@H](C)Nc2ccccc2C(=O)O)c2nc(N3CCOCC3)cc(=O)n2c1 [AZD-6482]
> 30 µM (inactive),> 30 µM (inactive),> 30 µM (inactive),–,> 30 µM (inactive),CCS(=O)(=O)N1CC(CC#N)(n2cc(-c3ncnc4[nH]ccc34)cn2)C1 [BARICITINIB]
> 30 µM (inactive),> 30 µM (inactive),> 30 µM (inactive),> 30 µM (inactive),> 30 µM (inactive),CNC(=O)c1cc(Oc2ccc(NC(=O)Nc3ccc(Cl)c(C(F)(F)F)c3)c(F)c2)ccn1 [REGORAFENIB]
> 30 µM (inactive),> 30 µM (inactive),> 30 µM (inactive),> 30 µM (inactive),> 30 µM (inactive),Cc1cc(Nc2cc(N3CCN(C)CC3)nc(/C=C/c3ccccc3)n2)n[nH]1 [ENMD-2076]
> 30 µM (inactive),–,> 30 µM (inactive),> 30 µM (inactive),–,CCCS(=O)(=O)Nc1ccc(F)c(C(=O)c2c[nH]c3ncc(-c4ccc(Cl)cc4)cc23)c1F [VEMURAFENIB]
> 30 µM (inactive),> 30 µM (inactive),> 30 µM (inactive),–,> 30 µM (inactive),COc1cc2nccc(Oc3ccc(NC(=O)NC4CC4)c(Cl)c3)c2cc1C(N)=O [LENVATINIB]
> 30 µM (inactive),–,> 30 µM (inactive),> 30 µM (inactive),–,Cc1cc2c(F)c(Oc3ncnn4cc(OC[C@@H](C)OC(=O)[C@H](C)N)c(C)c34)ccc2[nH]1 [BRIVANIB ALANINATE]
–,> 30 µM (inactive),> 30 µM (inactive),–,> 30 µM (inactive),Cc1ccc(S(=O)(=O)Nc2nc3ccccc3nc2Nc2ccc3nsnc3c2)cc1
–,> 30 µM (inactive),–,> 30 µM (inactive),–,Cc1c(F)cc(C(=O)NC2CC2)cc1-c1ccc(C(=O)NCC(C)(C)C)cn1 [LOSMAPIMOD]
–,> 30 µM (inactive),–,–,–,COc1cc(N2CCC(N3CCN(C)CC3)CC2)ccc1Nc1ncnc(Nc2ccccc2S(=O)(=O)C(C)C)n1 [ASP-3026]
–,> 30 µM (inactive),–,> 30 µM (inactive),> 30 µM (inactive),Nc1nc(N)c2nc(-c3cccc(O)c3)c(-c3cccc(O)c3)nc2n1 [TG100-115]
> 30 µM (inactive),–,–,–,> 30 µM (inactive),CCn1c(-c2nonc2N)nc2c(C#CC(C)(C)O)ncc(OC[C@H]3CCCNC3)c21 [GSK-690693]
> 30 µM (inactive),> 30 µM (inactive),–,> 30 µM (inactive),> 30 µM (inactive),C[C@@H](c1ccc2nccn2c1)n1nnc2ncc(-c3cnn(C)c3)nc21 [SAVOLITINIB]
–,–,> 30 µM (inactive),> 30 µM (inactive),–,CN1CCN(c2ccc3nc(-c4c(N)c5c(F)cccc5[nH]c4=O)[nH]c3c2)CC1 [DOVITINIB]
–,> 30 µM (inactive),–,> 30 µM (inactive),> 30 µM (inactive),CN(C)C(=O)c1cc2cnc(Nc3ccc(N4CCNCC4)cn3)nc2n1C1CCCC1 [RIBOCICLIB]
–,> 30 µM (inactive),–,> 30 µM (inactive),–,CC[C@H](Nc1ncnc2[nH]cnc12)c1nc2cccc(F)c2c(=O)n1-c1ccccc1 [IDELALISIB]
–,> 30 µM (inactive),> 30 µM (inactive),–,> 30 µM (inactive),C1=C/COCc2cc(ccc2OCCN2CCCC2)Nc2nccc(n2)-c2cccc(c2)COC/1 [PACRITINIB]
> 30 µM (inactive),> 30 µM (inactive),> 30 µM (inactive),–,> 30 µM (inactive),N[C@@H]1CCCN(c2c(/C=C3\SC(=O)NC3=O)cccc2-c2ccccc2)C1
> 30 µM (inactive),> 30 µM (inactive),> 30 µM (inactive),> 30 µM (inactive),> 30 µM (inactive),CCc1cnn2c(NCc3ccc[n+]([O-])c3)cc(N3CCCC[C@H]3CCO)nc12 [DINACICLIB]
> 30 µM (inactive),> 30 µM (inactive),> 30 µM (inactive),> 30 µM (inactive),> 30 µM (inactive),Cc1nc(N)sc1-c1ccnc(Nc2ccc(N3CCOCC3)cc2)n1 [CYC-116]
> 30 µM (inactive),> 30 µM (inactive),> 30 µM (inactive),> 30 µM (inactive),> 30 µM (inactive),CC[C@@H]1C(=O)N(C)c2cnc(Nc3ccc(C(=O)N[C@H]4CC[C@H](N5CCN(CC6CC6)CC5)CC4)cc3OC)nc2N1C(C)C [VOLASERTIB]
> 30 µM (inactive),> 30 µM (inactive),–,> 30 µM (inactive),–,Cn1cc(-c2ccc(F)c(C(F)(F)F)c2)nc1C1CCN(c2ncnc3[nH]ncc23)CC1 [LY-2584702]
> 30 µM (inactive),> 30 µM (inactive),> 30 µM (inactive),> 30 µM (inactive),> 30 µM (inactive),COc1cc2nccc(Oc3ccc(NC(=O)Nc4cc(C)on4)c(Cl)c3)c2cc1OC [TIVOZANIB]
–,> 30 µM (inactive),–,–,–,CNC(=O)c1ccc(C)c(-n2c(C)cc(OCc3ccc(F)cc3F)c(Br)c2=O)c1 [PH-797804]
> 30 µM (inactive),–,> 30 µM (inactive),> 30 µM (inactive),–,Cc1ccc(NC(=O)c2ccc(CN3CC[C@H](N(C)C)C3)c(C(F)(F)F)c2)cc1Nc1nccc(-c2cncnc2)n1 [BAFETINIB]
> 30 µM (inactive),> 30 µM (inactive),> 30 µM (inactive),> 30 µM (inactive),> 30 µM (inactive),COc1ccc(-c2ccc3c(N4CCOC[C@@H]4C)nc(N4CCOC[C@@H]4C)nc3n2)cc1CO [AZD-8055]

Compound,Kd (UMP-CMP kinase),Kd [1],Kd (Myosin-10),Kd [2],Kd [3]
C=CC(=O)N1CCC(Oc2cc3c(Nc4ccc(Cl)c(Cl)c4F)ncnc3cc2OC)CC1 [POZIOTINIB],–,> 30 µM (inactive),–,> 30 µM (inactive),–
O=C(Nc1cccc(Cl)c1)Nc1ncc(CCNc2ncnc3ccsc23)s1 [SNS-314],> 30 µM (inactive),> 30 µM (inactive),> 30 µM (inactive),–,> 30 µM (inactive)
O=C(c1ccc(F)c(F)c1Nc1ccc(I)cc1F)N1CC(O)([C@@H]2CCCCN2)C1 [COBIMETINIB],–,> 30 µM (inactive),–,> 30 µM (inactive),–
CN1CCC(COc2cnc(-c3cccc(Cn4nc(-c5cccc(C#N)c5)ccc4=O)c3)nc2)CC1 [TEPOTINIB],> 30 µM (inactive),> 30 µM (inactive),–,> 30 µM (inactive),> 30 µM (inactive)
COC(=O)[C@@]1(O)C[C@H]2O[C@]1(C)n1c3ccccc3c3c4c(c5c6ccccc6n2c5c31)C(=O)NC4 [K-252A],–,> 30 µM (inactive),–,> 30 µM (inactive),–
